From US8952024B2, “Herbicidal pyrimidone derivatives” (E I du Pont de Nemours and Company, priority 2009, dated 2015)
Where two headings read alike, the source gives them in different places.

Assays:
Assay type in all cases: in vivo
[1] = test system: winter barley (Hordeum vulgare); assay: Test B postemergence plant response; conditions: Postemergence
In short: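 Visual ratings from 0 (no effect) to 100 (complete control), made against controls 13–15 days after treatment, kept in a greenhouse. Compounds were applied postemergence to potted plants at the 1- to 4-leaf stage (2–18 cm).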

[2] = test system: barnyardgrass (Echinochloa crus-galli); assay: Test A pre-/postemergence plant response; conditions: Echinochloa crus-galli, 240 h; for pest or weed control at 125 g/ha: 125 g ai/ha; for pest or weed control at 500 g/ha: 500 g ai/ha
In short: (§1)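 Formulated test chemicals (non-phytotoxic solvent, surfactant) were sprayed onto soil right after planting and simultaneously onto young plants at one to two leaves, 2 to 10 cm tall. Plants stayed in the greenhouse about ten days; injury was then visually scored against untreated controls, from 0 (no effect) to 100 (complete control).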

[3] = test system: pigweed (Amaranthus retroflexus); assay: Test A pre-/postemergence plant response; conditions: Amaranthus retroflexus, 240 h; for pest or weed control at 125 g/ha: 125 g ai/ha; for pest or weed control at 500 g/ha: 500 g ai/ha
In short: as §1

[4] = test system: large crabgrass (Digitaria sanguinalis); assay: Test A pre-/postemergence plant response; conditions: Digitaria sanguinalis, 240 h; for pest or weed control at 125 g/ha: 125 g ai/ha; for pest or weed control at 500 g/ha: 500 g ai/ha
In short: as §1

[5] = test system: corn (Zea mays); assay: Test A pre-/postemergence plant response; conditions: Zea mays, 240 h; for Corn plant response rating (crop injury, 0 = no effect, 100 = complete kill) at 500 g/ha: 500 g ai/ha
In short: as §1

[6] = test system: velvetleaf (Abutilon theophrasti); assay: Test A pre-/postemergence plant response; conditions: Abutilon theophrasti, 240 h; for pest or weed control at 125 g/ha: 125 g ai/ha; for pest or weed control at 500 g/ha: 500 g ai/ha
In short: as §1

[7] = test system: wheat (Triticum aestivum); assay: Test A pre-/postemergence plant response; conditions: Triticum aestivum, 240 h; for plant injury at 125 g/ha: 125 g ai/ha; for plant injury at 500 g/ha: 500 g ai/ha
In short: as §1

[8] = test system: giant foxtail (Setaria faberii); assay: Test A pre-/postemergence plant response; conditions: Setaria faberi, 240 h; for pest or weed control at 125 g/ha: 125 g ai/ha; for pest or weed control at 500 g/ha: 500 g ai/ha
In short: as §1

[9] = test system: morningglory (Ipomoea spp.); assay: Test A pre-/postemergence plant response; conditions: Ipomoea, 240 h; for pest or weed control at 125 g/ha: 125 g ai/ha; for pest or weed control at 500 g/ha: 500 g ai/ha
In short: as §1

[10] = test system: barnyardgrass (Echinochloa crus-galli); assay: Test B flooded paddy test; conditions: Echinochloa crus-galli, 360 h
In short: (§2)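 Visual scores run from 0 (no effect) to 100 (complete control), assigned by comparison with controls 13 to 15 days after treatment. Test compounds went straight into water standing 3 cm above the soil, around plants at the 2-leaf stage kept in a greenhouse.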

[11] = test system: rice (Oryza sativa); assay: Test B flooded paddy test; conditions: Oryza sativa
In short: as §2

[12] = test system: ducksalad (Heteranthera limosa); assay: Test B flooded paddy test; conditions: Heteranthera limosa, 360 h
In short: as §2

[13] = test system: umbrella sedge (Cyperus difformis); assay: Test B flooded paddy test; conditions: Cyperus difformis, 360 h
In short: as §2

Cc1c(F)cccc1-n1c(-c2ccccc2)ncc(C(=O)C2=C(O)CCCC2=O)c1=O [Compound 47, 3-(3-fluoro-2-methylphenyl)-5-[(2-hydroxy-6-oxo-1-cyclohexen-1-yl)carbonyl]-2-phenyl-4(3H)-pyrimidinone]
plant injury at 31 g/ha ([1]; Hordeum vulgare, post-emergence, 31 g ai/ha, scale 0 to 100 (0 no effect, 100 complete control), read-out: Plant response rating, Barley): 5% | plant injury at 62 g/ha ([1]; Hordeum vulgare, post-emergence, 62 g ai/ha, scale 0 (no effect) to 100 (complete control), 13 to 15 days, read-out: Plant response rating, Barley): 10% | plant injury at 125 g/ha ([1]; Hordeum vulgare, post-emergence, 125 g ai/ha, visual rating after 13 to 15 days, scale 0 (no effect) to 100 (complete control)): 10% | Barley plant response rating ([1]; 250 g ai/ha, scale 0 to 100): 35 | pest or weed control at 125 g/ha ([2]; post-emergence, Postemergence, visual injury, 0 to 100 scale (0 no effect, 100 complete control), approx. ten days, read-out: Barnyardgrass plant response rating): 90% | pest or weed control at 500 g/ha ([2]; post-emergence, Postemergence, 0 to 100 scale, 0 = no effect, 100 = complete control, approx. ten days, read-out: Plant response rating, Barnyardgrass): 100% | pest or weed control at 125 g/ha ([2]; pre-emergence, Preemergence, 0 to 100 scale, 0 = no effect, 100 = complete control, read-out: Plant response rating, Barnyardgrass): 10% | pest or weed control at 500 g/ha ([2]; pre-emergence, Preemergence, visual injury, 0 to 100 scale (0 no effect, 100 complete control), approx. ten days, read-out: Plant response rating, Barnyardgrass): 90% | pest or weed control at 125 g/ha ([3]; post-emergence, Postemergence, visual injury, 0 to 100 scale (0 no effect, 100 complete control), approx. ten days, read-out: Pigweed plant response rating): 90% | pest or weed control at 500 g/ha ([3]; post-emergence, Postemergence, 0 to 100 scale, 0 = no effect, 100 = complete control, approx. ten days, read-out: Plant response rating, Pigweed): 100% | pest or weed control at 125 g/ha ([3]; pre-emergence, Preemergence, 0 to 100 scale, 0 = no effect, 100 = complete control, read-out: Plant response rating, Pigweed): 80% | pest or weed control at 500 g/ha ([3]; pre-emergence, Preemergence, visual injury, 0 to 100 scale (0 no effect, 100 complete control), approx. ten days, read-out: Plant response rating, Pigweed): 100% | pest or weed control at 125 g/ha ([4]; post-emergence, Postemergence, visual injury, 0 to 100 scale (0 no effect, 100 complete control), approx. ten days, read-out: Crabgrass, Large plant response rating): 90% | pest or weed control at 500 g/ha ([4]; post-emergence, Postemergence, 0 to 100 scale, 0 = no effect, 100 = complete control, approx. ten days, read-out: Plant response rating, Crabgrass, Large): 100% | pest or weed control at 125 g/ha ([4]; pre-emergence, Preemergence, 0 to 100 scale, 0 = no effect, 100 = complete control, read-out: Plant response rating, Crabgrass, Large): 70% | pest or weed control at 500 g/ha ([4]; pre-emergence, Preemergence, visual injury, 0 to 100 scale (0 no effect, 100 complete control), approx. ten days, read-out: Plant response rating, Crabgrass, Large): 100% | plant injury at 125 g/ha ([5]; post-emergence, Postemergence, 125 g ai/ha, visual injury, 0 to 100 scale (0 no effect, 100 complete control), approx. ten days, read-out: Corn plant response rating): 0% | Corn plant response rating (crop injury, 0 = no effect, 100 = complete kill) at 500 g/ha ([5]; post-emergence, Postemergence, 0 to 100 scale, 0 = no effect, 100 = complete control, approx. ten days): 70% | Corn plant response rating (crop injury, 0 = no effect, 100 = complete kill) at 125 g/ha ([5]; pre-emergence, Preemergence, 125 g ai/ha, 0 to 100 scale, 0 = no effect, 100 = complete control): 0% | Corn plant response rating (crop injury, 0 = no effect, 100 = complete kill) at 500 g/ha ([5]; pre-emergence, Preemergence, visual injury, 0 to 100 scale (0 no effect, 100 complete control), approx. ten days): 0% | pest or weed control at 125 g/ha ([6]; post-emergence, Postemergence, visual injury, 0 to 100 scale (0 no effect, 100 complete control), approx. ten days, read-out: Velvetleaf plant response rating): 100% | pest or weed control at 500 g/ha ([6]; post-emergence, Postemergence, 0 to 100 scale, 0 = no effect, 100 = complete control, approx. ten days, read-out: Plant response rating, Velvetleaf): 100% | pest or weed control at 125 g/ha ([6]; pre-emergence, Preemergence, 0 to 100 scale, 0 = no effect, 100 = complete control, read-out: Plant response rating, Velvetleaf): 70% | pest or weed control at 500 g/ha ([6]; pre-emergence, Preemergence, visual injury, 0 to 100 scale (0 no effect, 100 complete control), approx. ten days, read-out: Plant response rating, Velvetleaf): 100% | plant injury at 125 g/ha ([7]; post-emergence, Postemergence, visual injury, 0 to 100 scale (0 no effect, 100 complete control), approx. ten days, read-out: Wheat plant response rating): 0% | plant injury at 500 g/ha ([7]; post-emergence, Postemergence, 0 to 100 scale, 0 = no effect, 100 = complete control, approx. ten days, read-out: Plant response rating, Wheat): 0% | plant injury at 125 g/ha ([7]; pre-emergence, Preemergence, 0 to 100 scale, 0 = no effect, 100 = complete control, read-out: Plant response rating, Wheat): 0% | plant injury at 500 g/ha ([7]; pre-emergence, Preemergence, visual injury, 0 to 100 scale (0 no effect, 100 complete control), approx. ten days, read-out: Plant response rating, Wheat): 0% | pest or weed control at 125 g/ha ([8]; post-emergence, Postemergence, visual injury, 0 to 100 scale (0 no effect, 100 complete control), approx. ten days, read-out: Foxtail, Giant plant response rating): 90% | pest or weed control at 500 g/ha ([8]; post-emergence, Postemergence, 0 to 100 scale, 0 = no effect, 100 = complete control, approx. ten days, read-out: Plant response rating, Foxtail, Giant): 100% | pest or weed control at 125 g/ha ([8]; pre-emergence, Preemergence, 0 to 100 scale, 0 = no effect, 100 = complete control, read-out: Plant response rating, Foxtail, Giant): 50% | pest or weed control at 500 g/ha ([8]; pre-emergence, Preemergence, visual injury, 0 to 100 scale (0 no effect, 100 complete control), approx. ten days, read-out: Plant response rating, Foxtail, Giant): 90% | pest or weed control at 125 g/ha ([9]; post-emergence, Postemergence, visual injury, 0 to 100 scale (0 no effect, 100 complete control), approx. ten days, read-out: Morningglory plant response rating): 80% | pest or weed control at 500 g/ha ([9]; post-emergence, Postemergence, 0 to 100 scale, 0 = no effect, 100 = complete control, approx. ten days, read-out: Plant response rating, Morningglory): 100% | pest or weed control at 125 g/ha ([9]; pre-emergence, Preemergence, 0 to 100 scale, 0 = no effect, 100 = complete control, read-out: Plant response rating, Morningglory): 60% | pest or weed control at 500 g/ha ([9]; pre-emergence, Preemergence, visual injury, 0 to 100 scale (0 no effect, 100 complete control), approx. ten days, read-out: Plant response rating, Morningglory): 90% | pest or weed control at 250 g/ha ([10]; 250 g ai/ha, flooded paddy test, visual rating on 0 to 100 scale (0 no effect, 100 complete control) after 13 to 15 days, read-out: Plant response rating, Flood, Barnyardgrass): 20% | pest or weed control at 62 g/ha ([10]; Flood (flooded paddy test), 62 g ai/ha, scale of 0 to 100 where 0 is no effect and 100 is complete control, 13 to 15 days, read-out: Plant response rating, Barnyardgrass): 0% | plant injury at 250 g/ha ([11]; 250 g ai/ha, flooded paddy test, visual rating on 0 to 100 scale (0 no effect, 100 complete control) after 13 to 15 days, read-out: Plant response rating, Flood, Rice): 25% | plant injury at 62 g/ha ([11]; Flood (flooded paddy test), 62 g ai/ha, scale of 0 to 100 where 0 is no effect and 100 is complete control, 13 to 15 days, read-out: Plant response rating, Rice): 15% | pest or weed control at 250 g/ha ([12]; 250 g ai/ha, flooded paddy test, visual rating on 0 to 100 scale (0 no effect, 100 complete control) after 13 to 15 days, read-out: Plant response rating, Flood, Ducksalad): 95% | pest or weed control at 62 g/ha ([12]; Flood (flooded paddy test), 62 g ai/ha, scale of 0 to 100 where 0 is no effect and 100 is complete control, 13 to 15 days, read-out: Plant response rating, Ducksalad): 65% | pest or weed control at 250 g/ha ([13]; 250 g ai/ha, flooded paddy test, visual rating on 0 to 100 scale (0 no effect, 100 complete control) after 13 to 15 days, read-out: Plant response rating, Flood, Sedge, Umbrella): 85% | pest or weed control at 62 g/ha ([13]; Flood (flooded paddy test), 62 g ai/ha, scale of 0 to 100 where 0 is no effect and 100 is complete control, 13 to 15 days, read-out: Plant response rating, Sedge, Umbrella): 70%
